Results published in patent US20230226184A1, “IMPROVEMENTS IN ULTRASOUND-MEDIATED THERAPY” (Bracco Suisse SA, priority 2020, published 2023).

Assays:
[1] = test system: mesenteric rat microcirculation; test: Vasospasm inhibition by vasospasm inhibitor pre-treatment before US-MV (Examples 4, 7); type: in vivo; settings: for ability to inhibit the vasospasm: Example 7, conditions of Table 6 (P02, US 400 kPa, 5 min); for Vasospasm occurrence (on 3 animals/condition) / Vasospasm occurrence, percent: P02 1.5E+09 MV/kg, 1 bolus, US 400 kPa, 1 ms ON/10 s OFF, 5 min
Experimental: The model used for these experiments was the mesenteric rat microcirculation. Briefly, anesthetized animals were prepared to allow the visualization of an intestinal loop. The injections were made in the tail vein.
Rats were placed under the inverted microscope (Olympus® X2) equipped with a X20 objectives (mag final: 200). A numeric camera, driven by an open source software, acquired and recorded 30 s video at each time points required, in accordance with the protocol.
US treatment was delivered by an experimental single element transducer (unfocused, plane, 1.5 MHz). Table 1 reports the tested US parameters, including the pulse scheme, the acoustic pressure and the duration of US application, for each protocol. The transducer was focus on the optical objective and placed to respect a working distance of 5 cm.
Image sequences were acquired, before, during and after treatment. Additional acquisitions could be performed every 5 min until 40 min after the initiation of US exposure to monitor the vasospasm resolution.
The model used for these experiments was the mesenteric rat microcirculation. The model and animal preparation were described in example 2.
This study aimed at the evaluation of the inhibition of vasospasm induced by a vasospasm inhibitor compound, in particular the dihydropiridine calcium channel blocker nimodipine.
For this purpose, the rats received a pre-treatment with nimodipine, 10 mins before the combined treatment of gas-filled microvesicles and ultrasound for therapy.
Nimodipine (Sigma Aldrich, Switzerland) powder was first diluted in DMSO (40 mg/ml); the injected dose (1.4 mg/kg) was extemporary prepared in NaCl 0.9% and injected 10 min before the treatment.
The treatment parameters were chosen in accordance with the previous studies to obtain the generation of a vasospasm. P01 formulation was administered for this study.
This study aimed at assessing the efficacy of different pharmacological classes of vasospasm inhibitor drugs currently used in clinic on the vasospasm inhibition.
The duration between pre-treatment and injection of microvesicles and ultrasound treatment was in accordance with the pharmacocinetik pharmacokinetics and pharmacodynamics of each drug.

[2] = test system: mesenteric rat microcirculation; test: as above; type: in vivo; settings: Nimodipine 1.4 mg/kg, pre-treatment time 10 min; P02 1.5E+09 MV/kg, 1 bolus; US 400 kPa, 1 ms ON/10 s OFF, 5 min
[3] = test system: NMU rat tumor model; test: Extravasation of Cy5.5-labeled 150 kDa-dextran in tumour after US-MV treatment (Example 1); type: in vivo
Experimental: The model used was the NMU rat tumor model. Pre-pubescent rats (female, Sprague Dawley) received a single intra-peritoneal injection of 50 mg/kg of NMU (N-nitroso-N-methylurea, Sigma, Switzerland). Rats developing tumours were enrolled in protocol. In the NMU model, animals can develop several tumours allowing to have tumors receiving microvesicles and ultrasound for therapy; and tumors without ultrasound insonation (called untreated) in the same animal. The rats were anesthetized and placed on dorsal decubitus. A catheter was placed in the tail vein to inject drugs and microvesicles. The US treatment transducer was placed at 5 cm of the tumor (spaced by a water tank). […] To evaluate the efficiency of molecular extravasation, a 150 kDa-dextran labeled with Cy©5.5 fluorophore was injected just before therapeutic treatment with ultrasounds and microvesicles. […] Tumors were then harvested from sacrificed animals; the fluorescence was quantified on image acquired ex vivo (Fluobeam® 700). The fluorescence was quantified by ImageJ software.

[4] = test system: NMU tumor; test: Tumour perfusion during US-MV treatment followed by contrast echography (Example 6); type: in vivo, rat; settings: Nimodipine 1.4 mg/kg iv 10 min before; P02 1.2E+09 MV/kg, 4 boluses; US 600 kPa, 1 ms ON/15 s OFF, 20 min
Experimental: Pre-pubescent rats (female, Sprague Dawley) received a single intra-peritoneal injection of 50 mg/kg of NMU (N-nitroso-N-methylurea, Sigma, Switzerland). […] Serial bolus injections of gas-filled microvesicles (as specified in Table 5) were performed and the tumor was submitted to therapeutic insonation (frequency, acoustic pressure and pulse characteristics as specified in the subsequent examples). The perfusion of tumor during treatment was assessed as described in Example 5. All parameters relative to microvesicles and ultrasound treatment were fixed (see Table 5). The therapeutic insonation parameters were chosen in accordance with the previous studies, to obtain a vascular permeabilization in the NMU tumor.

[5] = test system: mouse DA3 tumor model; test: Tumour perfusion during US-MV treatment followed by contrast echography (Example 5); type: in vivo; settings: Nimodipine 1.4 mg/kg iv 10 min before; P01 1.3E+09 MV/kg, 4 boluses; US 800 kPa, 1 ms ON/15 s OFF, 25 min
Experimental: The mouse DA3 tumor model was used in these studies. The US treatment was delivered by the Verasonic® system (probe P4-2). The probe was placed at 5 cm from the tumor (spaced by a water tank, filled with degassed water). […] The perfusion of each tumor was followed by the echographic signal of microvesicles (Verasonic® system). The signal was recorded and post-analysed with Vuebox® software. […] The expression “replenishment time” indicates the time required to supply the area under the ultrasound beam with the vessel with fresh gas-filled microvesicles, after the substantial destruction of MV caused by each US pulse. The expression “MV destruction” corresponds to the loss of integrity or structure of MV caused by acoustic activation of MV by US. This can be provoked for example by MV collapse or gas dissolution and monitored by acoustic signal follow up. All parameters relative to microvesicles and ultrasound treatment were fixed (see Table 4). The therapeutic insonation parameters were chosen in accordance with the previous studies, to obtain a vascular permeabilization in the DA3 tumor.

[6] = Trinitrine (dose not given), pre-treatment time 1 min
[7] = Mg^2+ 300 mM, pre-treatment time 0 min
[8] = Prazosin 0.5 mg/kg, pre-treatment time 10 min

O=[N+]([O-])OCC(CO[N+](=O)[O-])O[N+](=O)[O-] [Trinitrine]
ability to inhibit the vasospasm [1]: good ability to inhibit the vasospasm
Vasospasm occurrence (on 3 animals/condition) [1, 6]: 0/3
Vasospasm occurrence, percent [1, 6]: (0%)

[Mg+2] [Mg^2+, magnesium]
ability to inhibit the vasospasm [1]: good ability to inhibit the vasospasm
Vasospasm occurrence (on 3 animals/condition) [1, 7]: 0/3
Vasospasm occurrence, percent [1, 7]: 0%

COCCOC(=O)C1=C(C)NC(C)=C(C(=O)OC(C)C)C1c1cccc([N+](=O)[O-])c1 (stereo not shown) [Nimodipine]
Vasospasm occurrence (on 3 animals/condition) [2]: 0/3
Vasospasm occurrence, percent [2]: 100%
mean fluorescence value (Cy5.5 dextran in tumour, ex vivo) ([3]; fifth group: VI pre-administration (Nimodipine 1.4 mg/kg, 10 min before) then US-MV, 600 kPa, 1 ms ON/10 s OFF, 20 min): 2060 RFU/px/ms
mean fluorescence signal (Cy5.5 dextran in tumour, ex vivo) ([3]; third group: VI+MV, no US, Nimodipine 1.4 mg/kg 10 min before, MV P02 or Definity 8 μl gas/kg in 4 boluses): 1030 RFU/px/ms
Decrease of perfusion in tumor, percent [4]: (100%)
Decrease of perfusion in tumor, percent [5]: 0%

C[C@H](CS)C(=O)N1CCC[C@H]1C(=O)O [Captoprill, Captopril]
ability to inhibit the vasospasm [1]: did not show any relevant inhibiting activity

COc1cc2nc(N3CCN(C(=O)c4ccco4)CC3)nc(N)c2cc1OC [Prazosin]
ability to inhibit the vasospasm [1]: lower ability
Vasospasm occurrence (on 3 animals/condition) [1, 8]: 1/3
Vasospasm occurrence, percent [1, 8]: 33%
